Measurements: patent publication USRE39591E1, “6-O-substituted ketolides having antibacterial activity” (Abbott Laboratories, priority 1996, dated 2007)
In brackets after ≈: the same amount, converted by molar mass.

Test system: up to 32 different microorganisms
Assay: in vitro antibacterial activity (MIC), agar dilution on Brain Heart Infusion (BHI) agar with Steers replicator
Format: cell-based
Conditions: unit assumed
Protocol: Representative compounds of the present invention were assayed in vitro for antibacterial activity as follows: Twelve petri dishes containing successive aqueous dilutions of the test compound mixed with 10 mL of sterilized Brain Heart Infusion (BHI) agar (Difco 0148-01-5) were prepared. Each plate was inoculated with 1:100 (or 1:10 for slow-growing strains, such as Micrococcus and Streptococcus) dilutions of up to 32 different microorganisms, using a Steers replicator block. The inoculated plates were incubated at 35°-37° C. for 20 to 24 hours. In addition, a control plate, using BHI agar containing no test compound, was prepared and incubated at the beginning and end of each test.
An additional plate containing a compound having known susceptibility patterns for the organisms being tested and belonging to the same antibiotic class as the test compound was also prepared and incubated as a further control, as well as to provide test-to-test comparability. Erythromycin A was used for this purpose.
After incubation, each plate was visually inspected. The minimum inhibitory concentration (MIC) was defined as the lowest concentration of drug yielding no growth, a slight haze, or sparsely isolated colonies on the inoculum spot as compared to the growth control.

CCC1OC(=O)C(C)C(=O)C(C)C(OC2OC(C)CC(N(C)C)C2O)C(C)(OCC=Cc2cnc3ccc(O)cc3c2)CC(C)C(=O)C(C)C2NC(=O)OC12C (stereo not drawn) [Example 208, R is —CH2CH═CH-(6-hydroxy-3-quinolyl)]
MIC (organism code AA): 0.1 mg/L (≈ 0.128 µM)
MIC (organism code BB): 0.39 mg/L (≈ 0.499 µM)
MIC (organism code CC): > 100 mg/L
MIC (organism code DD): 0.2 mg/L (≈ 0.256 µM)
MIC (organism code EE): 0.2 mg/L (≈ 0.256 µM)
MIC (organism code FF): 0.2 mg/L (≈ 0.256 µM)
MIC (organism code GG): > 100 mg/L
MIC (organism code HH): 0.2 mg/L (≈ 0.256 µM)
MIC (organism code II): 0.1 mg/L (≈ 0.128 µM)
MIC (organism code JJ): 0.01 mg/L (≈ 0.0128 µM)
MIC (organism code KK): 0.01 mg/L (≈ 0.0128 µM)
MIC (organism code LL): 0.01 mg/L (≈ 0.0128 µM)
MIC (organism code MM): 0.78 mg/L (≈ 0.998 µM)
MIC (organism code NN): 0.39 mg/L (≈ 0.499 µM)
MIC (organism code OO): 0.01 mg/L (≈ 0.0128 µM)
MIC (organism code PP): 0.1 mg/L (≈ 0.128 µM)
MIC (organism code QQ): 25 mg/L (≈ 32 µM)
MIC (organism code RR): 0.39 mg/L (≈ 0.499 µM)
MIC (organism code SS): 50 mg/L (≈ 63.9 µM)
MIC (organism code TT): > 100 mg/L
MIC (organism code UU): 0.78 mg/L (≈ 0.998 µM)
MIC (organism code VV): 0.2 mg/L (≈ 0.256 µM)
MIC (organism code WW): 2 mg/L (≈ 2.56 µM)
MIC (organism code XX): 0.03 mg/L (≈ 0.0384 µM)
MIC (organism code YY): 0.03 mg/L (≈ 0.0384 µM)
MIC (organism code ZZ): 4 mg/L (≈ 5.12 µM)
MIC (organism code ZZA): 1 mg/L (≈ 1.28 µM)

CCC1OC(=O)C(C)C(=O)C(C)C(OC2OC(C)CC(N(C)C)C2OC(C)=O)C(C)(OCC=Cc2cnc3ccccc3c2)CC(C)C(=O)C(C)C2NC(=O)OC12C (stereo not drawn) [Example 198, Compound of Formula (III): L is CO, T is NH, R^c is acetyl; R is —CH2CH═CH-(3-quinolyl)]
MIC (Candida albicans CCH 442 (code TT)): > 100 mg/L
MIC (Enterococcus faecism ATCC 8043 (code II)): 0.02 mg/L
MIC (Escherichia coli DC-2 (code SS)): 50 mg/L
MIC (Escherichia coli JUHL (code QQ)): 50 mg/L
MIC (Escherichia coli SS (code RR)): 0.1 mg/L
MIC (Micrococcus luteus ATCC 4698 (code PP)): 0.1 mg/L
MIC (Micrococcus luteus ATCC 9341 (code OO)): ≤ 0.005 mg/L
MIC (Mycobacterium smegmatis ATCC 114 (code UU)): 0.39 mg/L
MIC (Nocardia Asteroides ATCC9970 (code VV)): 0.02 mg/L
MIC (Staphylococcus aureus 1775 (code GG)): > 100 mg/L
MIC (Staphylococcus aureus A5177 (code BB)): 0.05 mg/L
MIC (Staphylococcus aureus A-5278 (code CC)): > 100 mg/L
MIC (Staphylococcus aureus ATCC 6538P (code AA)): 0.05 mg/L
MIC (Staphylococcus aureus CMX 553 (code FF)): 0.02 mg/L
MIC (Staphylococcus aureus CMX 642A (code DD)): 0.05 mg/L
MIC (Staphylococcus aureus NCTC10649M (code EE)): 0.05 mg/L
MIC (Staphylococcus epidermidis 3519 (code HH)): 0.1 mg/L
MIC (Streptococcus agalactiae CMX 508 (code KK)): ≤ 0.005 mg/L
MIC (Streptococcus bovis A-5169 (code JJ)): ≤ 0.005 mg/L
MIC (Streptococcus pyogenes 930 (code MM)): 0.39 mg/L
MIC (Streptococcus pyogenes EES61 (code LL)): ≤ 0.005 mg/L
MIC (Streptococcus pyogenes PIU 2548 (code NN)): 0.1 mg/L

CC[C@H]1OC(=O)[C@H](C)C(=O)[C@H](C)[C@@H](O[C@@H]2O[C@H](C)C[C@H](N(C)C)[C@H]2O)[C@@](C)(OCC#Cc2ccccc2)C[C@@H](C)C(=O)[C@H](C)[C@H]2NC(=O)O[C@@]21C [Example 249, Compound of Formula (IX): L is CO, T is NH, R is —CH2—C≡C-phenyl]
MIC (organism code AA): 0.1 mg/L
MIC (organism code BB): 0.1 mg/L
MIC (organism code CC): > 100 mg/L
MIC (organism code DD): 0.2 mg/L
MIC (organism code EE): 0.2 mg/L
MIC (organism code FF): 0.1 mg/L
MIC (organism code GG): > 100 mg/L
MIC (organism code HH): 0.1 mg/L
MIC (organism code II): 0.05 mg/L
MIC (organism code JJ): 0.01 mg/L
MIC (organism code KK): 0.02 mg/L
MIC (organism code LL): 0.02 mg/L
MIC (organism code MM): 100 mg/L
MIC (organism code NN): 0.1 mg/L
MIC (organism code OO): 0.01 mg/L
MIC (organism code PP): 0.1 mg/L
MIC (organism code QQ): 100 mg/L
MIC (organism code RR): 0.39 mg/L
MIC (organism code SS): > 100 mg/L
MIC (organism code TT): > 100 mg/L
MIC (organism code UU): 0.39 mg/L
MIC (organism code VV): 0.1 mg/L
MIC (organism code WW): 4 mg/L
MIC (organism code XX): 0.03 mg/L
MIC (organism code YY): 0.03 mg/L
MIC (organism code ZZ): > 128 mg/L
MIC (organism code ZZA): 0.25 mg/L

CC[C@H]1OC(=O)[C@H](C)C(=O)[C@H](C)[C@@H](O[C@@H]2O[C@H](C)C[C@H](N(C)C)[C@H]2O)[C@@](C)(OCC(=O)c2ccc(F)cc2)C[C@@H](C)C(=O)[C@H](C)[C@H]2NC(=O)O[C@@]21C [Example 240, Compound of Formula (IX): L is CO, T is NH, R is —CH2C(O)-(4-F-phenyl)]
MIC (organism code AA): 3.1 mg/L
MIC (organism code BB): 3.1 mg/L
MIC (organism code CC): > 100 mg/L
MIC (organism code DD): 6.2 mg/L
MIC (organism code EE): 3.1 mg/L
MIC (organism code FF): 3.1 mg/L
MIC (organism code GG): > 100 mg/L
MIC (organism code HH): 3.1 mg/L
MIC (organism code II): 0.78 mg/L
MIC (organism code JJ): 0.39 mg/L
MIC (organism code KK): 0.39 mg/L
MIC (organism code LL): 0.39 mg/L
MIC (organism code MM): > 100 mg/L
MIC (organism code NN): 0.78 mg/L
MIC (organism code OO): 0.39 mg/L
MIC (organism code PP): 1.56 mg/L
MIC (organism code QQ): > 100 mg/L
MIC (organism code RR): 3.1 mg/L
MIC (organism code SS): > 100 mg/L
MIC (organism code TT): > 100 mg/L
MIC (organism code UU): 6.2 mg/L
MIC (organism code VV): 1.56 mg/L
MIC (organism code WW): 32 mg/L
MIC (organism code XX): 0.25 mg/L
MIC (organism code YY): 0.25 mg/L
MIC (organism code ZZ): > 128 mg/L
MIC (organism code ZZA): 1 mg/L

CCC1OC(=O)C(C)C(=O)C(C)C(OC2OC(C)CC(N(C)C)C2O)C(C)(OCC=Cc2ccc3cc(O)c(C(=O)Nc4ccccc4OC)cc3c2)CC(C)C(=O)C(C)C2NC(=O)OC12C (stereo not drawn) [Example 206, R is —CH2CH═CH-(3-hydroxy-2-(N-(2-methoxyphenyl)amido)-7-napthyl)]
MIC (organism code AA): 0.78 mg/L (≈ 0.839 µM)
MIC (organism code BB): 0.39 mg/L (≈ 0.419 µM)
MIC (organism code CC): > 100 mg/L
MIC (organism code DD): 0.78 mg/L (≈ 0.839 µM)
MIC (organism code EE): 0.78 mg/L (≈ 0.839 µM)
MIC (organism code FF): 0.78 mg/L (≈ 0.839 µM)
MIC (organism code GG): > 100 mg/L
MIC (organism code HH): 0.78 mg/L (≈ 0.839 µM)
MIC (organism code II): 0.39 mg/L (≈ 0.419 µM)
MIC (organism code JJ): 0.1 mg/L (≈ 0.108 µM)
MIC (organism code KK): 0.39 mg/L (≈ 0.419 µM)
MIC (organism code LL): 0.39 mg/L (≈ 0.419 µM)
MIC (organism code MM): > 100 mg/L
MIC (organism code NN): 1.56 mg/L (≈ 1.68 µM)
MIC (organism code OO): 0.2 mg/L (≈ 0.215 µM)
MIC (organism code PP): 1.56 mg/L (≈ 1.68 µM)
MIC (organism code QQ): > 100 mg/L
MIC (organism code RR): 25 mg/L (≈ 26.9 µM)
MIC (organism code SS): > 100 mg/L
MIC (organism code TT): > 100 mg/L
MIC (organism code UU): 3.1 mg/L (≈ 3.33 µM)
MIC (organism code VV): 3.1 mg/L (≈ 3.33 µM)
MIC (organism code WW): > 128 mg/L
MIC (organism code XX): 0.5 mg/L (≈ 0.538 µM)
MIC (organism code YY): 0.5 mg/L (≈ 0.538 µM)
MIC (organism code ZZ): > 128 mg/L
MIC (organism code ZZA): 4 mg/L (≈ 4.3 µM)

CCC1OC(=O)C(C)C(=O)C(C)C(OC2OC(C)CC(N(C)C)C2O)C(C)(OCC=Cc2cc3nccnc3cc2[N+](=O)[O-])CC(C)C(=O)C(C)C2NC(=O)OC12C (stereo not drawn) [Example 200, R is —CH2CH═CH-(7-nitro-6-quinoxalinyl)]
MIC (organism code AA): 0.1 mg/L (≈ 0.123 µM)
MIC (organism code BB): 0.1 mg/L (≈ 0.123 µM)
MIC (organism code CC): > 100 mg/L
MIC (organism code DD): 0.1 mg/L (≈ 0.123 µM)
MIC (organism code EE): 0.1 mg/L (≈ 0.123 µM)
MIC (organism code FF): 0.1 mg/L (≈ 0.123 µM)
MIC (organism code GG): > 100 mg/L
MIC (organism code HH): 0.1 mg/L (≈ 0.123 µM)
MIC (organism code II): 0.02 mg/L (≈ 0.0246 µM)
MIC (organism code JJ): 0.01 mg/L (≈ 0.0123 µM)
MIC (organism code KK): 0.02 mg/L (≈ 0.0246 µM)
MIC (organism code MM): 50 mg/L (≈ 61.6 µM)
MIC (organism code NN): 0.2 mg/L (≈ 0.246 µM)
MIC (organism code OO): 0.01 mg/L (≈ 0.0123 µM)
MIC (organism code PP): 0.2 mg/L (≈ 0.246 µM)
MIC (organism code QQ): 50 mg/L (≈ 61.6 µM)
MIC (organism code RR): 0.39 mg/L (≈ 0.48 µM)
MIC (organism code SS): 12.5 mg/L (≈ 15.4 µM)
MIC (organism code TT): > 100 mg/L
MIC (organism code UU): 0.78 mg/L (≈ 0.961 µM)
MIC (organism code VV): 0.1 mg/L (≈ 0.123 µM)
MIC (organism code WW): 2 mg/L (≈ 2.46 µM)
MIC (organism code XX): ≤ 0.004 mg/L
MIC (organism code YY): ≤ 0.004 mg/L
MIC (organism code ZZ): > 128 mg/L
MIC (organism code ZZA): 0.25 mg/L (≈ 0.308 µM)
